What was measured:
U-87 MG [1] = test: Cytotoxicity against human U-87 MG cells assessed as survival rate at 10 uM measured after 72 hrs by MTT assay relative to control; format: functional, U-87MG ATCC; conditions: read-out: Survival
HCT-116 [2] = test: Cytotoxicity against human HCT-116 cells assessed as survival rate at 10 uM measured after 72 hrs by MTT assay relative to control; format: functional; conditions: read-out: Survival
MCF7 [3] = test: Cytotoxicity against human MCF7 cells assessed as survival rate at 10 uM measured after 72 hrs by MTT assay relative to control; format: functional; conditions: read-out: Survival
U-87 MG [4] = test: Cytotoxicity against human U-87 MG cells assessed as inhibition of cell growth at 10 uM measured after 72 hrs by MTT assay relative to control; format: functional, U-87MG ATCC
HCT-116 [5] = test: Cytotoxicity against human HCT-116 cells assessed as inhibition of cell growth at 10 uM measured after 72 hrs by MTT assay relative to control; format: functional
MGC-803 [6] = test: Cytotoxicity against human MGC-803 cells assessed as inhibition of cell growth at 10 uM measured after 72 hrs by MTT assay relative to control; format: functional
MCF7 [7] = test: Cytotoxicity against human MCF7 cells assessed as inhibition of cell growth at 10 uM measured after 72 hrs by MTT assay relative to control; format: functional
MKN-45 [8] = test: Cytotoxicity against human MKN-45 cells assessed as inhibition of cell growth at 10 uM measured after 72 hrs by MTT assay relative to control; format: functional
HeLa [9] = test: Cytotoxicity against human HeLa cells assessed as inhibition of cell growth at 10 uM measured after 72 hrs by MTT assay relative to control; format: functional
HeLa [10] = test: Cytotoxicity against human HeLa cells assessed as inhibition of cell growth incubated for 72 hrs by MTT assay; format: functional, cell-based
HCT-116 [11] = test: Cytotoxicity against human HCT-116 cells assessed as inhibition of cell growth incubated for 72 hrs by MTT assay; format: functional, cell-based; conditions: HCT-116, 72 h
MGC-803 [12] = test: Cytotoxicity against human MGC-803 cells assessed as inhibition of cell growth incubated for 72 hrs by MTT assay; format: functional, cell-based; conditions: MGC-803, 72 h
MCF7 [13] = test: Cytotoxicity against human MCF7 cells assessed as inhibition of cell growth incubated for 72 hrs by MTT assay; format: functional, cell-based; conditions: MCF7, 72 h
U-87 MG [14] = test: Cytotoxicity against human U-87 MG cells assessed as inhibition of cell growth incubated for 72 hrs by MTT assay; format: functional, cell-based, U-87MG ATCC
MKN-45 [15] = test: Cytotoxicity against human MKN-45 cells assessed as inhibition of cell growth incubated for 72 hrs by MTT assay; format: functional, cell-based; conditions: MKN-45, 72 h
[16] = Cytotoxicity against HHL-5 cells assessed as inhibition of cell growth incubated for 72 hrs by MTT assay; format: toxicity, cell-based; conditions: human

| SMILES | viability at 10 µM (U-87 MG [1]) | viability at 10 µM (HCT-116 [2]) | viability at 10 µM (MCF7 [3]) | inhibition at 10 µM (U-87 MG [4]) | inhibition at 10 µM (HCT-116 [5]) | inhibition at 10 µM (MGC-803 [6]) | inhibition at 10 µM (MCF7 [7]) | inhibition at 10 µM (MKN-45 [8]) | inhibition at 10 µM (HeLa [9]) | IC50 (HeLa [10]) | IC50 (HCT-116 [11]) | IC50 (MGC-803 [12]) | IC50 (MCF7 [13]) | IC50 (U-87 MG [14]) | IC50 (MKN-45 [15]) | IC50 at 72 h [16] |
| --- | --- | --- | --- | --- | --- | --- | --- | --- | --- | --- | --- | --- | --- | --- | --- | --- |
| COc1ccc(C2=CC(=O)O/C2=C\c2ccc3ccccc3c2)cc1 | 106% | 98.3% | 83.8% |  |  |  |  |  |  |  |  |  |  |  |  |  |
| O=C1C=C(c2ccccc2)/C(=C/c2ccc3[nH]ccc3c2)O1 | 103% | 98.9% | 60.2% |  |  |  |  |  |  |  |  |  |  |  |  |  |
| O=C1C=C(c2ccccc2)/C(=C/c2ccc(C(=O)O)cc2)O1 | 96.5% | 105% | 87.3% |  |  |  |  |  |  |  |  |  |  |  |  |  |
| Cc1ccc(/C=C2\OC(=O)C=C2c2ccccc2)cc1 | 101% | 104% | 87.4% |  |  |  |  |  |  |  |  |  |  |  |  |  |
| COc1ccc(C2=CC(=O)O/C2=C\c2ccc(O)c(O)c2)cc1 | 51.9% | 31.7% | 26.1% | > 50% | > 50% | > 50% | > 50% | > 50% | > 50% | 1.3 µM | 3.4 µM | 8.8 µM | 2.5 µM | 23.8 µM | 2.8 µM | 11.3 µM |
| COc1ccc(C2=CC(=O)O/C2=C\c2ccc3[nH]ccc3c2)cc1 | 39.5% | 23.9% | 25.8% | > 50% | > 50% | > 50% | > 50% | > 50% | > 50% | 0.2 µM | 0.3 µM | 0.9 µM | 1.3 µM | 7.8 µM | 0.2 µM | 1.3 µM |
| COc1ccc(C2=CC(=O)O/C2=C\c2ccc(Br)cc2)cc1 | 103% | 107% | 107% |  |  |  |  |  |  |  |  |  |  |  |  |  |
| COc1ccc(C2=CC(=O)O/C2=C\c2ccc(N(C)C)cc2)cc1 | 101% | 87.2% | 92.2% |  |  |  |  |  |  |  |  |  |  |  |  |  |
| COc1cccc2c1C(=O)c1c(O)c3c(c(O)c1C2=O)C[C@@](O)(C(=O)CO)C[C@@H]3O[C@H]1C[C@H](N)[C@H](O)[C@H](C)O1 [DOXORUBICIN] | 20.3% | 12.2% | 5.8% |  |  |  |  |  |  | 0.2 µM | 0.2 µM | 0.3 µM |  | 0.3 µM | 0.2 µM | 7.2 µM |
| COc1ccc(C2=CC(=O)O/C2=C\c2ccc(C(C)(C)C)cc2)cc1 | 109% | 98.9% | 60.2% |  |  |  |  |  |  |  |  |  |  |  |  |  |
| COc1ccc(/C=C2\OC(=O)C=C2c2ccc(OC)cc2)cc1 | 39.1% | 26.5% | 25.9% | > 50% | > 50% | > 50% | > 50% | > 50% | > 50% | 2.2 µM | 3.7 µM | 6.2 µM | 4.3 µM | 11.9 µM | 5.2 µM | 3.9 µM |
| COc1cc(/C=C2\OC(=O)C=C2c2ccccc2)ccc1O | 99.8% | 137% | 102% |  |  |  |  |  |  |  |  |  |  |  |  |  |
| COc1ccc(/C=C2\OC(=O)C=C2c2ccccc2)cc1 | 91.2% | 113% | 82.9% |  |  |  |  |  |  |  |  |  |  |  |  |  |
